Results taken from patent US20230302159A1, “COMPOUNDS AND COMPOSITIONS FOR TUMOR DETECTION AND SURGICAL GUIDANCE” (Cornell University, priority 2020, published 2023).
Values joined by “and” are separate entries in the source; they are usually repeats but may differ in a detail not shown here. Equal values may be shown once.

What was measured:
[1] = Optical properties of the CypH dyes: absorbance maximum and extinction coefficient in EtOH (Table 1); assay type: physicochemical; settings: for Ex Coeff (M^−1cm^−1) @ Abs Max: at absorbance maximum
Procedure: (§1) Characterization: All new CypH dyes were characterized by proton NMR and mass spectrometry to confirm identity. NMR data was consistent with the structure and mass spectrometry results gave the expected mass of the dye±0.5 amu. An HPLC method was developed (see below) and used to assess dye purity. […] Retention times on the column generally correlated with lipophilicity of the dyes with water soluble dyes containing sulfate groups eluting out earlier (@10.6 min for CypH-3, 6, 9) than CypH-1 (@11.9 min) and the more lipophilic dyes later. Optical properties of the dyes, acid dissociation constants and solubilities were also determined. Synthetic intermediates were also characterized by proton NMR.

[2] = Solubility of the CypH dyes (Table 1); assay type: physicochemical; settings: organic solvent or mixture; in EtOH; read-out: Solubility
Procedure: as §1

[3] = Fluorescence properties of the CypH dyes at pH 5.0 and pH 7.5 (Table 2); assay type: physicochemical; settings: for Ratio Intensity pH 5.0/7.5: fluorescence intensity pH 5.0 over pH 7.5
Excerpt: The excitation and emission maxima of CypH-1 are 760 and 777 nm, respectively. The signal intensity ratio of pH 5 over pH 7.5 was about 10. The meso-bridge ring size, lipophilicity and electro-density of CypH-1 was modified to provide better optical property. […] The best compound from this group was CypH-5 whose fluorescence ratio of pH 5.0/pH 7.5 was increased to 22. Based on this initial structure and property relationship, the second round of 10 new analogs were designed using CypH-5 as the core, focusing on modifying the electron density on the aniline ring and the indolinium ring. Various alkyl groups, such as methyl, ethyl, propyl, isopropyl and their combinations, were applied to these two positions.
The CypH analogs with other longer alkyl chains had much lower background fluorescence. […] Among them, CypH-11, which has a methyl isopropyl aniline and an isopropyl group on the indolinium ring, gave a 112-fold enhancement in fluorescence signal. CypH-11 has absorbance and emission maxima at 766 nm and 785 nm, respectively (FIG. 4) and was selected as the lead compound (vide infra).

[4] = Absorbance and fluorescence spectra (excitation/emission maxima); assay type: physicochemical
OVASAHO cells = experiment: Cell viability, cell counting kit-8 (CCK-8); assay type: cell-based; settings: 2 μM for 1 hr, then 72 hrs in fresh medium
Procedure: Cell viability. The cell viability of CypH-11 and CypH-1 were evaluated using the cell counting kit-8 (CCK-8) from Dojindo (Rockville, MD). OVASAHO cells (5.0×10^3) were seeded on a 96-well plate and cultured for 24 hrs. Then the cells were treated with CypH-11 (2 μM) and CypH-1 (2 μM) for 1 hr. After replacing the medium with fresh cell culture medium, the cells were incubated for another 72 hrs. The cell viability was examined by treating them with CCK-8 solution for 3 hrs and reading the absorbance at 450 nm using a plate reader.

RFP-ovsaho tumors = experiment: In vivo imaging study, spray on about 2 mm subcutaneous RFP-ovsaho tumors (Example 1); set-up: species or system mice; settings: for tumor contrast after spray: 2 μM sprayed, no washing
Procedure: In vivo imaging study. The animals inoculated with RFP-ovsaho cells in flank were used for the imaging study. To imitate the morphology of metastasized human ovarian cancer, the tumor size was controlled to 2 mm. The skin was removed prior to the spray of dye (2 μM, in saline). The tumor areas were sprayed and imaged using Cy7 filter set at different time points. RFP images were also acquired for tumor co-registration. The contrast ratio was calculated by [signal of tumor]/[signal of adjacent muscle]. Following the in vitro and cellular validation, we thought that the best candidate, CypH-11, which has excellent fluorescence property in different pH and in cells, could be an ideal agent to augment the detection of small cancerous lesions otherwise unnoticeable to surgeons. To verify the presumption, RFP positive ovsaho ovarian cancer cells were subcutaneously inoculated in mice. When tumors were about 2 mm in size, the skin was removed and the CypH-11 solution (2 μM in saline) was sprayed onto the tumor areas. […] The contrast continued to increase slightly and quickly reached plateau at ˜7 min. The tumor signal is about 150% higher than the adjacent muscle tissues, and the CypH-11 signal co-registered well with the RFP signal. […] In a separate set of experiment, animals were inoculated with two tumors. Each tumor was sprayed either with the prototype dye CypH-1 or CypH-11, and imaged simultaneously.

[5] = conditions not stated, previously published lead probe

SMILES | Ex Coeff (M^−1cm^−1) @ Abs Max [1] | Abs. Max (nm) in EtOH [1] [nm] | Solubility [2] [µM] | Ratio Intensity pH 5.0/7.5 [3] | Ratio Intensity pH 5.0/7.5 ([3]; listed as 1) | FL Intensity pH 5.0 [3] | FL Max (nm) pH 5.0 [3] [nm] | FL Intensity pH 7.5 [3] | FL Max (nm) pH 7.5 [3] [nm] | emission maximum [4, 5] [nm] | excitation maximum [4, 5] [nm] | cell viability (OVASAHO cells) [%] | tumor contrast after spray (RFP-ovsaho tumors) | Ratio Intensity pH 5.0/7.5 ([3]; listed as 11) | Emmax / emission maximum ([4]; 2 μM, pH 5.0 phosphate buffer) [nm] | Exmax / absorbance maximum ([4]; 2 μM, pH 5.0 phosphate buffer) | time to contrast plateau (RFP-ovsaho tumors; 2 μM in saline, sprayed) [min] | tumor signal higher than the adjacent muscle tissues (RFP-ovsaho tumors; 2 μM in saline, sprayed) | time to fluorescent signal highlighting the tumor after spray (RFP-ovsaho tumors; 2 μM in saline, sprayed, about 2 mm tumors)
CN(C)c1ccc(OC2=C(/C=C/C3=[N+](C)c4ccccc4C3(C)C)CCC/C2=C\C=C2\N(C)c3ccccc3C2(C)C)cc1.[Cl-] [CypH-1, reference compound] | 74,450 M^−1cm^−1 | 760 | > 1000 | about 10 | 10.1 | 3363 | 787 | 334 | 782 | 777 | 760 | 95.5±6.9 | minimally contrast |  |  |  |  |  | 
CC(C)N(C)c1ccc(OC2=C(/C=C/C3=[N+](C(C)C)c4ccccc4C3(C)C)CCC/C2=C\C=C2\N(C(C)C)c3ccccc3C2(C)C)cc1.[I-] [CypH-11] | 233,800 M^−1cm^−1 | 771 | > 1000 | 112 |  | 5028 | 790 | 45 | 785 |  |  | 91.0±4.6 | near instant signal enhancement | 111.7 | 785 | 766 nm and 765 nm | ~7 | about 150% | within a minute
